Assay results: patent US20230114728A1 (Venatorx Pharmaceuticals, Inc., priority 2019, published 2023)
≈ marks a conversion by molar mass, not a printed value.

Assays:
[1] = target: T1, E. coli K12 PBP3 (Escherichia coli, UniProt P0AD68); test: biochemical; assay type: binding
T1 construct: made in house
Outline: (§1)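 A. baumannii PBP2 (2.5 μM) and PBP3 (0.2 μM) were run in 25 mM Tris pH 8.0 buffer with Tween 20; E. coli PBP3 (1.5 μM) and N. gonorrhoeae PBP2 ([…]) in 50 mM Hepes pH 8.0 buffer.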

[2] = target: T2, N. gonorrhoeae PBP2 (Neisseria gonorrhoeae, UniProt P08149); test: Bocillin-FL fluorescence polarization competition binding assay, N. gonorrhoeae PBP2; conditions: fluorescence polarization competition binding assay using Bocillin-FL; read-out: N. gonorrhoeae PBP2 Potency
T2 construct: made in house
Outline: as §1

[3] = target: T3, P. aeruginosa PBP3 (Pseudomonas aeruginosa, UniProt G3XD46); test: Bocillin-FL fluorescence polarization competition binding assay, P. aeruginosa PBP3; conditions: fluorescence polarization competition binding assay using Bocillin-FL
T3 construct: made in house
Outline: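 Inhibitor competition with Bocillin-FL for P. aeruginosa PBP3 was followed by fluorescence polarization on a Cytation3 (BioTek) reader, using g-factor 0.96, 490 nm excitation and 520 nm emission. The enzyme was at 0.75 μM and the probe at 0.1 μM in Hepes/NaCl/glycerol buffer, 80 μl per well. FP was recorded immediately after probe addition for up to 60 minutes. Potency was expressed as EC50, the concentration that reduces bound probe by 50%.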

[4] = tested on: N. gonorrhoeae WHO L; test: Liquid broth MIC in Fastidious broth; assay type: cell-based; conditions: Neisseria gonorrhoeae; N. gonorrhoeae strain WHO L; Fastidious broth; read-out: Minimum Inhibitory Concentration, N. gonorrhoeae WHO L
Outline: (§2)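 Colonies were swabbed from chocolate agar after 24 h growth and standardised by optical density at 600 nm. Compounds were serially diluted twofold in Fastidious broth, and bacteria added to give 5×10^5 CFU/mL. After about 24 h at 36 °C in 5% CO2, the lowest concentration allowing under 10% growth was taken as MIC.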

[5] = tested on: N. gonorrhoeae ATCC 49226; test: Liquid broth MIC in Fastidious broth; assay type: cell-based; conditions: Neisseria gonorrhoeae, ATCC49226; N. gonorrhoeae strain ATCC 49226; Fastidious broth; read-out: Minimum Inhibitory Concentration, N. gonorrhoeae ATCC 49226
Outline: as §2

[6] = tested on: N. gonorrhoeae WHO Z; test: Liquid broth MIC in Fastidious broth; assay type: cell-based; conditions: Neisseria gonorrhoeae, read-out: Minimum Inhibitory Concentration, N. gonorrhoeae WHO Z
Outline: (§3)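 Mosaic-PBP2 strains grown 24 h on chocolate agar (36 °C, 5% CO2), then direct-suspended in saline and OD600-adjusted. Twofold compound dilutions in Fastidious broth inoculated at 5×10^5 CFU/mL and incubated ~24 h at 36 °C, 5% CO2. MIC read visually as lowest concentration with <10% growth versus full-growth wells.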

[7] = tested on: N. gonorrhoeae WHO G; test: Liquid broth MIC in Fastidious broth; assay type: cell-based; conditions: Neisseria gonorrhoeae; N. gonorrhoeae strain WHO G; Fastidious broth; read-out: Minimum Inhibitory Concentration, N. gonorrhoeae WHO G
Outline: as §2

[8] = tested on: N. gonorrhoeae WHO Q; test: Liquid broth MIC in Fastidious broth; assay type: cell-based; conditions: Neisseria gonorrhoeae, read-out: Minimum Inhibitory Concentration, N. gonorrhoeae WHO Q
Outline: as §3

[9] = tested on: N. gonorrhoeae FA1090; test: Liquid broth MIC in Fastidious broth; assay type: cell-based; conditions: Neisseria gonorrhoeae; N. gonorrhoeae strain FA1090; Fastidious broth; read-out: Minimum Inhibitory Concentration, N. gonorrhoeae FA1090
Outline: as §2

[10] = tested on: N. gonorrhoeae WHO K; test: Liquid broth MIC in Fastidious broth; assay type: cell-based; conditions: Neisseria gonorrhoeae, read-out: Minimum Inhibitory Concentration, N. gonorrhoeae WHO K
Outline: as §3

T1 sequence (P0AD68 1-577): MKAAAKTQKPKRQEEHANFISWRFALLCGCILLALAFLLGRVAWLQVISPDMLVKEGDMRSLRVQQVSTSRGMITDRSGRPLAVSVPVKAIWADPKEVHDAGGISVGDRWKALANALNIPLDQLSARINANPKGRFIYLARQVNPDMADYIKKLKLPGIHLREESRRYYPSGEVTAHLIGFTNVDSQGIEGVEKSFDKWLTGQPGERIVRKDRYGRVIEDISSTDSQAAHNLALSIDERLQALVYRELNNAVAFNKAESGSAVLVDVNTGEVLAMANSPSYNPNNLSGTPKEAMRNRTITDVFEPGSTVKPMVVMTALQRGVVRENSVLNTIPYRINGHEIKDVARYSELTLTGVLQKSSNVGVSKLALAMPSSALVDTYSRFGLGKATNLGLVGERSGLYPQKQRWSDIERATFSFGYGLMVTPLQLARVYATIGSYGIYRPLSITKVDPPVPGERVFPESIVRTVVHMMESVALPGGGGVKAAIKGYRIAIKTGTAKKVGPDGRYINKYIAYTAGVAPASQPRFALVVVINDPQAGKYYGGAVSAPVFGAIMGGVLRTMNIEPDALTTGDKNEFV
T3 sequence (G3XD46 whole entry): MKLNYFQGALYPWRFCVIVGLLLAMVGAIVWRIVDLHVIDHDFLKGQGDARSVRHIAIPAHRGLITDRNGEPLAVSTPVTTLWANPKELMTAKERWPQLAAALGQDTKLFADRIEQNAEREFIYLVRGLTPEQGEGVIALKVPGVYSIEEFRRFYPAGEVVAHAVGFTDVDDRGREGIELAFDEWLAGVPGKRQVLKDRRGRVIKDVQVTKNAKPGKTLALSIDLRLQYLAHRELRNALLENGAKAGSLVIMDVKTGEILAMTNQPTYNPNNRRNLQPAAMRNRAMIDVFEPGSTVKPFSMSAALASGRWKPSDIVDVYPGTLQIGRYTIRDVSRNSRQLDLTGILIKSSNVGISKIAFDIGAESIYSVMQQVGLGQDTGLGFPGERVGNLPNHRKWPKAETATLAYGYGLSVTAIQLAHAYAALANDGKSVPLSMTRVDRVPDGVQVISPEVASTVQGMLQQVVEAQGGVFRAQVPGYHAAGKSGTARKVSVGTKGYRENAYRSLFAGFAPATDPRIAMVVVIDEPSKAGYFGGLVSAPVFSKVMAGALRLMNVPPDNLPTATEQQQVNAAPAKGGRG
T2 sequence (P08149 whole entry): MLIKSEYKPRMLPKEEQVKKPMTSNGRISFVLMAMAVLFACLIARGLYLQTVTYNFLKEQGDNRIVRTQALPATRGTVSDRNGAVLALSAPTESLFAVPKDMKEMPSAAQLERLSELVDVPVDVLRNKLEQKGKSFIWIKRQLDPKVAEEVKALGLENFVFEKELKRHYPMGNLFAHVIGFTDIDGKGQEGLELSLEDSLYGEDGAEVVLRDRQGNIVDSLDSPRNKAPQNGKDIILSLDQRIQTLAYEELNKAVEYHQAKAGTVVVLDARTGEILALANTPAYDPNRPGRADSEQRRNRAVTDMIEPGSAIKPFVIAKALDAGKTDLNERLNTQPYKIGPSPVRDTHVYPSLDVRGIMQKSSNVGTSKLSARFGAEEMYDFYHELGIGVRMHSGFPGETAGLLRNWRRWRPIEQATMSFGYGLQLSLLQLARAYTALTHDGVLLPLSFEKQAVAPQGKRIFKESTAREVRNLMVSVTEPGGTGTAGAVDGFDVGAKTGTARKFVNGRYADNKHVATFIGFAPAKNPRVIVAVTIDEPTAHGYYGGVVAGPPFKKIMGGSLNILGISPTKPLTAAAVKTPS

Row | Compound | EC50 [1] [µM] | EC50 [2] [µM] | P. aeruginosa PBP3 Potency [3] | MIC [4] [µg/mL] | MIC [5] [µg/mL] | MIC [6] [µg/mL] | MIC [7] [µg/mL] | MIC [8] [µg/mL] | MIC [9] [µg/mL] | MIC [10] [µg/mL]
1 | NCCN1CCN(C(=O)NC(C(=O)N[C@H]2Cc3cccc(C(=O)O)c3OB2O)c2c(F)cc(NS(N)(=O)=O)cc2F)C(=O)C1=O (stereo partly drawn) [Example 177, (3R)-3-(2-(4-(2-aminoethyl)-2,3-dioxopiperazine-1-carboxamido)-2-(2,6-difluoro-4-(sulfamoylamino)phenyl)acetamido)-2-hydroxy-3,4-dihydro-2H-benzo[e][1,2]oxaborinine-8-carboxylic acid] | 30 to 500 | 10 to 30 | D (D represents a potency <10 μM) | > 64 | > 64 | > 64 | 16 to 32 (≈ 24.5 to 49 µM) | > 64 | 4 to 8 (≈ 6.12 to 12.2 µM) | > 64
2 | CCN1CCN(C(=O)N[C@@H](C(=O)N[C@H]2Cc3cccc(C(=O)O)c3OB2O)c2ccc(C(=O)O)c(F)c2)C(=O)C1=O (single isomer, unassigned) [Example 146] | < 30 | < 10 | D (D represents a potency <10 μM) | 4 to 8 (≈ 7.01 to 14 µM) | 1 to 2 (≈ 1.75 to 3.51 µM) | 1 to 2 (≈ 1.75 to 3.51 µM) | 0.25 to 0.5 (≈ 0.438 to 0.877 µM) | 1 to 2 (≈ 1.75 to 3.51 µM) | < 0.125 | 1 to 2 (≈ 1.75 to 3.51 µM)
3 | CCN1CCN(C(=O)N[C@@H](C(=O)N[C@H]2Cc3cccc(C(=O)O)c3OB2O)c2ccc(C(=O)O)c(Cl)c2)C(=O)C1=O (single isomer, unassigned) [Example 154] | < 30 | < 10 | D (D represents a potency <10 μM) | 4 to 8 (≈ 6.82 to 13.6 µM) | 1 to 2 (≈ 1.7 to 3.41 µM) | 0.25 to 0.5 (≈ 0.426 to 0.852 µM) | 0.25 to 0.5 (≈ 0.426 to 0.852 µM) | 1 to 2 (≈ 1.7 to 3.41 µM) | < 0.125 | 1 to 2 (≈ 1.7 to 3.41 µM)
